Where a name gives a salt, the structure may show the parent alone.

We go through three compounds from ChEMBL document CHEMBL4414637, “Resorcinosides A and B, Glycosylated Alkylresorcinols from a Marine-Derived Strain of the Fungus Penicillium janthinellum” (2019).

What all share (assay type): functional
One assay has as its system HCT-15. Description: Cytotoxicity against human HCT15 cells assessed as cell growth inhibition measured after 48 hrs by SRB assay. Particulars: HCT-15, 48 h.
The subject of the next assay is PC-3. The assay can be described thus: Cytotoxicity against human PC3 cells assessed as cell growth inhibition measured after 48 hrs by SRB assay. The note with it: PC-3, 48 h. (In general: The SRB assay estimates cell density from bound dye.)
In another assay the test system is NUGC-3. The assay can be described thus: Cytotoxicity against human NUGC3 cells assessed as cell growth inhibition measured after 48 hrs by SRB assay. Particulars: NUGC-3, 48 h.
A further assay concerns MDA-MB-231. Description: Cytotoxicity against human MDA-MB-231 cells assessed as cell growth inhibition measured after 48 hrs by SRB assay. The note with it: MDA-MB-231, 48 h.
For a further assay, the system named is ACHN. The assay can be described thus: Cytotoxicity against human ACHN cells assessed as cell growth inhibition measured after 48 hrs by SRB assay.
For the next assay, the system named is NCI-H23. The assay can be described thus: Cytotoxicity against human NCI-H23 cells assessed as cell growth inhibition measured after 48 hrs by SRB assay. The note with it: NCI-H23, 48 h.

Turning to `CC[C@H](C)[C@@H](CCCCCCC/C=C/C=C/CCc1cc(O)cc(O)c1)O[C@H]1O[C@H](CO)[C@@H](O)[C@H](O)[C@H]1O`, the GI50 (usually the concentration that inhibits growth by half) in the assay on HCT-15 worked out at 19 µM; in the assay on PC-3, 21 µM; in the assay on NUGC-3, 9.3 µM; in the assay on MDA-MB-231 it was 25 µM; in the assay on ACHN, 31 µM; in the assay on NCI-H23 it was 24 µM.
As for `CC[C@H](C)[C@@H](CCCCCCC/C=C/C=C/CCc1cc(O)cc(O)c1Cc1c(O)cc(C)oc1=O)O[C@H]1O[C@H](CO)[C@@H](O)[C@H](O)[C@H]1O`, the GI50 in the assay on HCT-15, in the assay on PC-3, with NUGC-3, in the assay on MDA-MB-231, with ACHN and in the assay with NCI-H23 was above 50 µM each time.
Turning to `COc1cccc2c1C(=O)c1c(O)c3c(c(O)c1C2=O)C[C@@](O)(C(=O)CO)C[C@@H]3O[C@H]1C[C@H](N)[C@H](O)[C@H](C)O1` [DOXORUBICIN HYDROCHLORIDE], the GI50 in the assay with HCT-15 came out at 0.14 µM; in the assay with PC-3 it was 0.14 µM; in the assay with NUGC-3, 0.15 µM; in the assay with MDA-MB-231, 0.15 µM; in the assay on ACHN it was 0.13 µM; in the assay on NCI-H23 it was 0.14 µM.
